For orientation: GI50 means the concentration giving 50% growth inhibition. The term IC50 denotes the concentration needed to halve the response being measured. A higher IC50 goes with weaker potency in that assay.

Where only a bound is given, the exact number is not on record here.

For one data set, the system named is Ba/F3 parental. Put plainly: Ba/F3 parental growth inhibition. The format is cell-based. The conditions noted are these: Mus musculus, BaF3; Ba/F3 parental cells.
The test system of another data set is CHO-K1. Put plainly: Cytotoxicity test (cell counting kit-8). The format is cell-based, Chinese hamster. The settings on record: Cricetulus griseus, WST-8. An excerpt: (§1) Cell counting kit-8 assay is a general test method for identifying cell viability using a pale yellow tetrazolium salt called “WST-8”. WST-8, which is soluble in water, is degraded by a dehydrogenase present in the cells, forming orange formazan. Formazan dye is formed by dehydrogenase activity proportional to the number of viable cells, and thus can be used as an indicator for cell viability. The Hill equation of Graphpad Prism was used for analysis.
Background: Tetrazolium dyes change colour on reduction, which living cells bring about.

For the next data set, the system named is human CYP isozymes. In words: CYP450 assay, summary over human CYP isozymes. In kind it is in vitro ADME. The conditions noted are these: 10 μM. How it is done:
Compound 5 and a positive control stock solution were diluted with water to prepare a 40 μM working solution, and a solution containing an enzyme and a substrate was prepared using water and buffer. Compound 5/control/positive control and the solution were each dispensed on a 96-well and preincubated at 37° C. for 10 minutes. The resulting substance was reacted with NADPH for 20 minutes at 37° C. and a detection reagent was added to terminate the reaction. After stabilization at room temperature for 20 minutes, a luminescence signal was measured.

Another data set deals with VERO. In words: Cytotoxicity test (cell counting kit-8). The settings on record: Chlorocebus sabaeus, WST-8. The format is cell-based, African green monkey.
Source text: as §1

The next data set has as its target hERG K+ channel (Homo sapiens, UniProt Q12809). In words: hERG K+ channel binding assay (fluorescence polarization). The protocol: The hERG tracer and membranes were dissolved at room temperature before use, the tracer and hERG assay buffer were diluted at 1:62.5 and a test substance was diluted to 40 μM with assay buffer. 5 μL of the test substance, a positive control (astemizole or E-4031) and a negative control (DMSO) were dispensed into a 384-well plate, the membranes are dispensed at 10 μL using a multi-pipette and 5 μl of the tracer was dispensed. The light was blocked and incubated at 25° C. for 2 to 3 hours. Then, polarization was measured using a TECAN plate reader (Infinite M1000 pro).
A general note: The hERG channel carries a current that helps repolarise heart muscle cells.

The next data set concerns Ba/F3 FLT3-ITD. Put plainly: Ba/F3 FLT3-ITD growth inhibition. The format is cell-based. The settings on record: Ba/F3 FLT3-ITD cells.
The target in another data set is CYP 2C19 (Homo sapiens, UniProt P33261). Put plainly: CYP450 assay (luminescence). In kind it is in vitro ADME. The settings on record: CYP 2C19 enzyme with substrate, compound at 10 μM, read-out: inhibitory activity against human CYP 2C19. How it is done: The resulting substance was reacted with NADPH for 20 minutes at 37° C. and a detection reagent was added to terminate the reaction. After stabilization at room temperature for 20 minutes, a luminescence signal was measured.
CYP 2C19, sequence (P33261 whole entry): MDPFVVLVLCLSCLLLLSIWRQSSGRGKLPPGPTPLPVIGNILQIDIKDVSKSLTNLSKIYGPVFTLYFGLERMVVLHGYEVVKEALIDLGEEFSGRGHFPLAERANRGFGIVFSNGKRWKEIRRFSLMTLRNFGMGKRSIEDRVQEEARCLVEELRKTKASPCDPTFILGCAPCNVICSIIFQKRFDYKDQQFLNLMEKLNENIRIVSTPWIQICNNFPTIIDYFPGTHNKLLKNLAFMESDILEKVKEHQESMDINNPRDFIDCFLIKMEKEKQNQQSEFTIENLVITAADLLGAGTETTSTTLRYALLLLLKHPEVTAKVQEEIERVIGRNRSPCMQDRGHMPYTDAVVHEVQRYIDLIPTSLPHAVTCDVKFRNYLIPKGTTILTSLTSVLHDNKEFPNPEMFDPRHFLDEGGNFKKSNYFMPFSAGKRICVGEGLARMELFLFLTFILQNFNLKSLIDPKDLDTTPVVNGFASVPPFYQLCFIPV

Another data set concerns the target T1, FLT3 (Homo sapiens, UniProt P36888).
T1 construct: purchased Reaction Biology Corporation
T1 sequence (P36888 27-993): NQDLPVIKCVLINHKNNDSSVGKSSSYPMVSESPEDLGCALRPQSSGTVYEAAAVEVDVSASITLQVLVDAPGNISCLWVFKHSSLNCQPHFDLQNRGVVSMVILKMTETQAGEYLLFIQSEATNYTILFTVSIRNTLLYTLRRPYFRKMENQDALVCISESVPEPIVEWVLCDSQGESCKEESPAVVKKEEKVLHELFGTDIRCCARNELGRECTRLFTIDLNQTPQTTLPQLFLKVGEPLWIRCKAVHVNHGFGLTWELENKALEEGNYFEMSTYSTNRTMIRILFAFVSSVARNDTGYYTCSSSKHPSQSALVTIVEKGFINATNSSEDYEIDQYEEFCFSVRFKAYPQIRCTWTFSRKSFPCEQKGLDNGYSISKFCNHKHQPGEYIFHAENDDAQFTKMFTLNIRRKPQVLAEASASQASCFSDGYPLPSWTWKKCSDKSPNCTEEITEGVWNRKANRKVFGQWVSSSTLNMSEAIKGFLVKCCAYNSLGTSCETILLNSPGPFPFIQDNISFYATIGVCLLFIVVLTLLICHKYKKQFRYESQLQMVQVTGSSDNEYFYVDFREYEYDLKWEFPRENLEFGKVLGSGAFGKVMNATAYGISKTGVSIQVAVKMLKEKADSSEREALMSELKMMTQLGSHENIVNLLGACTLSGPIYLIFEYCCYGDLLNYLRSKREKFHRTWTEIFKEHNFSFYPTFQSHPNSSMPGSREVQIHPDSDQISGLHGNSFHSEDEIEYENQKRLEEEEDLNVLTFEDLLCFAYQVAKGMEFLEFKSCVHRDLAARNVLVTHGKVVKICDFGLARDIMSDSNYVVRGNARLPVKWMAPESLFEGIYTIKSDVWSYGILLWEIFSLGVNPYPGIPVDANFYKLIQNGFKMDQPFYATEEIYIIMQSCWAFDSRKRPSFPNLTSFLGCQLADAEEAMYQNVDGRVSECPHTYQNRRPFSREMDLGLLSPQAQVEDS
Put plainly: Kinase screening, HotSpot assay (Reaction Biology). The format is biochemical. The protocol: Kinase screening was performed using a “HotSpot” assay platform method by Reaction Biology Corporation. The reaction buffer used herein contained 20 mM HEPES (pH 7.5), 10 mM MgCl2, 1 mM EGTA, 0.02% Brij35, 0.02 mg/mL BSA, 0.1 mM Na3VO4, 2 mM DTT and 1% DMSO. The required cofactors were added in accordance with the kinase reaction. Freshly made buffer and cofactors were added at a concentration of 20 μM during the selected enzyme reaction. A solution of the test compound in dimethylsulfoxide (DMSO) was added at a suitable concentration to this solution.

The next data set deals with FLT3 (ITD) (Homo sapiens, UniProt P36888). Put plainly: FLT3 mutant enzyme activity, HotSpot assay. The format is biochemical. The settings on record: ATP 10 μM. How it is done: (§2) Kinase screening was performed using a “HotSpot” assay platform method by Reaction Biology Corporation. The reaction buffer used herein contained 20 mM HEPES (pH 7.5), 10 mM MgCl2, 1 mM EGTA, 0.02% Brij35, 0.02 mg/mL BSA, 0.1 mM Na3VO4, 2 mM DTT and 1% DMSO. The required cofactors were added in accordance with the kinase reaction. Freshly made buffer and cofactors were added at a concentration of 20 μM during the selected enzyme reaction. A solution of the test compound in dimethylsulfoxide (DMSO) was added at a suitable concentration to this solution. In order to initiate reaction, […] (specific activity […]) was added and incubated at room temperature for 2 hours. The test compound was screened at a starting concentration of 20 μM in a 10-dose IC50 mode. IC50 of Staurosporine used as a control drug was obtained at a starting concentration of 20 μM in a 10-dose IC50 mode.

The target of the next data set is T2, FLT3 (D835Y) (Homo sapiens, UniProt P36888, D835Y).
T2 construct: purchased Reaction Biology Corporation
Put plainly: FLT3 mutant enzyme activity, HotSpot assay. The format is biochemical. The conditions noted are these: ATP 10 μM. The protocol:
as §2

For the next data set, the target named is FLT3 (ITD)-NPOS (Homo sapiens, UniProt P36888). In words: FLT3 mutant enzyme activity, HotSpot assay. In kind it is biochemical. The conditions noted are these: ATP 10 μM. The protocol:
as §2

hERG K+ channel, sequence (Q12809 whole entry): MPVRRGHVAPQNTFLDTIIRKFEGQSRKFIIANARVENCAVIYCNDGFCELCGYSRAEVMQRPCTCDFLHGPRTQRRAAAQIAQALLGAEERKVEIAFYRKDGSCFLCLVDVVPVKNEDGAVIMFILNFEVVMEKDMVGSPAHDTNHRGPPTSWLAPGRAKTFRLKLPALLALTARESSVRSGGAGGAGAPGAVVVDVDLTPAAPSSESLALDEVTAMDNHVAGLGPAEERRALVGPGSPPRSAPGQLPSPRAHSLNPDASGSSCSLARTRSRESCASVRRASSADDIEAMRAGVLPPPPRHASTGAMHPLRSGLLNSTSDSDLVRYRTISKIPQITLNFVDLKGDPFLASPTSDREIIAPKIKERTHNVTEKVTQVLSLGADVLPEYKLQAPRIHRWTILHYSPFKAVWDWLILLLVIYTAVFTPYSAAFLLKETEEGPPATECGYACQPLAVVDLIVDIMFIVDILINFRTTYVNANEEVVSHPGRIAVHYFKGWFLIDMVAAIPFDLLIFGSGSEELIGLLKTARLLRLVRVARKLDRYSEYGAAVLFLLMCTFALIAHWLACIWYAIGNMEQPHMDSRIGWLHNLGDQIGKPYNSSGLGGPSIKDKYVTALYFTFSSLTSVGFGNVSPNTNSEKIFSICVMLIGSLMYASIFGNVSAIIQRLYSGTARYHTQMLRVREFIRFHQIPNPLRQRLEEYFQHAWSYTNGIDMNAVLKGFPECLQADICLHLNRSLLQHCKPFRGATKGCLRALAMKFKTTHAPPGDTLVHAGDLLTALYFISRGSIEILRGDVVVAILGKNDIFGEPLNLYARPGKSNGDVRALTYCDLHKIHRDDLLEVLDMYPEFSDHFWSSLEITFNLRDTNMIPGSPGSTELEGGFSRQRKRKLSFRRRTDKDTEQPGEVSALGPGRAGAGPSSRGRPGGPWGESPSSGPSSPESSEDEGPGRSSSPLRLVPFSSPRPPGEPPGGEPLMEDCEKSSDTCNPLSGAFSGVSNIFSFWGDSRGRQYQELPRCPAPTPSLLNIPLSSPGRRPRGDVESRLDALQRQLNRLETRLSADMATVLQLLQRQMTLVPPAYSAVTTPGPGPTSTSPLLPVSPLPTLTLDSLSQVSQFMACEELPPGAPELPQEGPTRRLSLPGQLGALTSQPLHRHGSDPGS

With `Clc1cnc(Nc2ccc(OCCN3CCCC3)cc2)nc1NCc1ccco1` [Compound 5, 5-chloro-4-(furan-2-yl)methylamino-2-[4-{2-(pyrrolidin-1-yl)ethoxy}phenylamino]pyrimidine], the GI50 stood at 1820 nM in the data set on Ba/F3 parental and 42 nM with Ba/F3 FLT3-ITD. Besides, the concentration for half-maximal inhibition (IC50) with CHO-K1 was above 100 µM; with VERO it was 19.7 µM; on hERG K+ channel (concentrations 0.01, 0.1, 1, 2, 5, 10, 20, 50 μM) it was 15200 nM; against FLT3, 2.87 nM; at FLT3 (ITD), 1.5 nM; on FLT3 (D835Y) it was below 1 nM. Half-maximal inhibition against FLT3 (ITD)-NPOS (IC50) was put at 4.5 nM. Besides, in the data set on human CYP isozymes, the “CYP inhibition conclusion (more than 50% inhibition needs attention)” value is “stable”. In addition, the “hERG K+ channel binding as indicator of toxicity in the heart, conclusion” value on hERG K+ channel is recorded as “stable in the heart”. Also, the inhibition at 20 min, 10 µM at CYP 2C19 worked out at 15.9%.

The values are drawn from US10683282B2, “Multi-substituted pyrimidine derivatives with excellent kinase inhibitory activities” (KOREA INSTITUTE OF SCIENCE AND TECHNOLOGY, priority 2018, dated 2020).
